# Paper PMC6066978, “Chronic Intermittent Hypoxia-Induced Vascular Dysfunction in Rats is Reverted by N-Acetylcysteine Supplementation and Arginase Inhibition” (Frontiers in Physiology, 2018)
# Target: arginase
# Test: arginase activity (urea production, ISPF colorimetric) in human placental homogenate
# Format: biochemical
compound,measurement,value
"N[C@@H](CCCCB(O)O)C(=O)O [ABH, 2(S)-amino-6-boronohexanoic acid]",Ki,4.78 ± 1.76 µM
